# Assays:
# MDA-MB-231 = experiment: Cytotoxicity against human MDA-MB-231 cells after 72 hrs by sulforhodamine B assay; assay type: functional; conditions: MDA-MB-231, 72 h
# A549 = experiment: Cytotoxicity against human A549 cells after 72 hrs by sulforhodamine B assay; assay type: functional; conditions: A549, 72 h
# HT-29 = experiment: Cytotoxicity against human HT-29 cells after 72 hrs by sulforhodamine B assay; assay type: functional; conditions: HT-29, 72 h
# L929 = experiment: Cytotoxicity against mouse L929 cells; assay type: functional
# [1] = Inhibition of hypoxia-induced HIF1 transcriptional activity
Structure (SMILES),GI50 (MDA-MB-231) [nM],TGI (MDA-MB-231) [nM],GI50 (A549) [nM],TGI (A549) [nM],GI50 (HT-29) [nM],TGI (HT-29) [nM],MIC (L929) [µg/mL],IC50 [1] [µg/mL],LC50 (50% lethal concentration) (MDA-MB-231) [nM],LC50 (A549) [nM],LC50 (concentration killing 50% of cells) (HT-29) [nM]
COc1cccc2c1C(=O)c1c(O)c3c(c(O)c1C2=O)C[C@@](O)(C(C)=O)C[C@@H]3O[C@H]1C[C@H](N)[C@H](O)[C@H](C)O1 [DAUNORUBICIN],20,120,80,170,70,330,,,,,
C[C@@H]1C(=O)C[C@@H](O)CC/C=C/C=C\CC[C@H](C)OC(=O)C(O)[C@]2(O)O[C@@H](CC[C@H]2C)[C@H](C)C(=O)C[C@@H](O)CC/C=C/C=C\CC[C@H](C)OC(=O)C(O)[C@]2(O)O[C@H]1CC[C@H]2C (some centres not stated) [TARTROLON A],,,,,,,70,,,,
C[C@@H]1C(=O)C[C@@H](O)CC/C=C/C=C\CC[C@H](C)OC(=O)[C@@H]2O[B-]34O[C@@H](C(=O)O[C@@H](C)CC/C=C\C=C\CC[C@H](O)CC(=O)[C@@H](C)[C@@H]5CC[C@](C)(O)[C@]2(O5)O3)[C@@]2(O[C@H]1CC[C@]2(C)O)O4 [TARTROLON C],,,,,,,,0.17,,,
C[C@@H]1CC[C@H]2CC(=O)C[C@@H](O)CC/C=C/C=C\CC[C@H](C)OC(=O)C(O)[C@]3(O)O[C@@H](CC[C@H]3C)CC(=O)C[C@@H](O)CC/C=C/C=C\CC[C@H](C)OC(=O)C(O)[C@]1(O)O2 (some centres not stated) [TARTROLON D],790,3410,160,1460,310,1710,,,11000,8050,8410

# Source: ChEMBL document CHEMBL1154817, “Tartrolon D, a cytotoxic macrodiolide from the marine-derived actinomycete Streptomyces sp. MDG-04-17-069” (J Nat Prod, 2009)
